Reference: patent publication US20220265629A1, “TREATMENT OF SYSTOLIC DYSFUNCTION AND HEART FAILURE WITH REDUCED EJECTION FRACTION WITH THE COMPOUND (R)-4-(1-((3-(DIFLUOROMETHYL)-1-METHYL-1H-PYRAZOL-4-YL)SULFONYL)-1-FLUOROETHYL)-N-(ISOXAZOL-3-YL)PIPERIDINE-1-CARBOXAMIDE” (MyoKardia, Inc., priority 2019, published 2022)

System: patients with stable HFrEF
Experiment: HFrEF study Part 1 (SAD Cohorts 1 and 2): TTE pharmacodynamics by plasma concentration group
Format: in vivo, human
Conditions: for A wave peak change from baseline, placebo-corrected (LS mean difference) / E wave peak change from baseline, placebo-corrected (LS mean difference) / E/A ratio change from baseline, placebo-corrected (LS mean difference) / E/e′ lateral change from baseline, placebo-corrected (LS mean difference) / LVEDD change from baseline, placebo-corrected (LS mean difference) / LVEDV change from baseline, placebo-corrected (LS mean difference) / LVEF change from baseline, placebo-corrected (LS mean difference) / LVESD change from baseline, placebo-corrected (LS mean difference) / LVESV change from baseline, placebo-corrected (LS mean difference) / LVFS change from baseline, placebo-corrected (LS mean difference) / LVGLS change from baseline, placebo-corrected (LS mean difference) / LVSV change from baseline, placebo-corrected (LS mean difference) / SET change from baseline, placebo-corrected (LS mean difference) / e′ lateral change from baseline, placebo-corrected (LS mean difference): pooled SAD Cohorts 1 and 2
Description: PD assessment was done by transthoracic echocardiography as described in Example 1 above. TTE evaluations of LVSV (derived from LVOT-VTI), LVEF, LVFS, SET, and other parameters were PD assessments at predetermined time points. The patients were on bed rest for 10 minutes before the TTEs were obtained. In Part 2 (MAD), TTEs were usually obtained before the morning close and/or at 7 hours postclose (i.e., close to the anticipated peak effect based on the PK profile from the healthy volunteer studies).
For both Cohorts 1 and 2, the pharmacodynamic effects of Compound I on echocardiographic markers of cardiac structure and function were analyzed by Compound I plasma concentration groups: <2000 ng/mL (low concentration group) and >2000 ng/mL (high concentration group) (Table 12).

[1] = high plasma concentration group (≥2000 ng/mL)

SMILES: Cn1cc(S(=O)(=O)[C@@](C)(F)C2CCN(C(=O)Nc3ccon3)CC2)c(C(F)F)n1 [Compound I, (R)-4-(1-((3-(difluoromethyl)-1-methyl-1H-pyrazol-4-yl)sulfonyl)-1-fluoroethyl)-N-(isoxazol-3-yl)piperidine-1-carboxamide]
- SET prolongation in one patient (350 mg, 1.5 and 3 h postdose): ~63 ms
- Mean SET prolongation for all patients (350 mg, 3 to 9 hours postdose): 16.2 ms
- SET prolongation in one patient (350 mg, 6 and 9 hours postdose): < 35 ms
- increase in SET (SAD cohorts): < 50 ms
- relative increases from baseline in cardiac contractility (SV, LVEF, FS) (SAD cohorts): approximately 10%
- LV ejection fraction, mean (SE) increase from baseline [1]: 4.4%
- LV global longitudinal strain, mean (SE) decrease [1]: −2.1%
- A wave peak change from baseline, placebo-corrected (LS mean difference) (plasma <2000 ng/mL): -3.2 cm/s
- E wave peak change from baseline, placebo-corrected (LS mean difference) (plasma <2000 ng/mL): -1.1 cm/s
- E/A ratio change from baseline, placebo-corrected (LS mean difference) (plasma <2000 ng/mL): 0.09
- E/e′ lateral change from baseline, placebo-corrected (LS mean difference) (plasma <2000 ng/mL): 0.6
- LVEDD change from baseline, placebo-corrected (LS mean difference) (plasma <2000 ng/mL): 0.2 mm
- LVEDV change from baseline, placebo-corrected (LS mean difference) (plasma <2000 ng/mL): -2.5 mL
- LVEF change from baseline, placebo-corrected (LS mean difference) (plasma <2000 ng/mL): 4.1%
- LVESD change from baseline, placebo-corrected (LS mean difference) (plasma <2000 ng/mL): −1.3 mm
- LVESV change from baseline, placebo-corrected (LS mean difference) (plasma <2000 ng/mL): -4.0 mL
- LVFS change from baseline, placebo-corrected (LS mean difference) (plasma <2000 ng/mL): 3.1%
- LVGLS change from baseline, placebo-corrected (LS mean difference) (plasma <2000 ng/mL): −1.1%
- LVSV change from baseline, placebo-corrected (LS mean difference) (plasma <2000 ng/mL): 1.0 mL
- SET change from baseline, placebo-corrected (LS mean difference) (plasma <2000 ng/mL): 8 ms
- e′ lateral change from baseline, placebo-corrected (LS mean difference) (plasma <2000 ng/mL): -1 cm/s
- A wave peak change from baseline, placebo-corrected (LS mean difference) (plasma ≥2000 ng/mL): -8.8 cm/s
- E wave peak change from baseline, placebo-corrected (LS mean difference) (plasma ≥2000 ng/mL): -1.6 cm/s
- E/A ratio change from baseline, placebo-corrected (LS mean difference) (plasma ≥2000 ng/mL): 0.08
- E/e′ lateral change from baseline, placebo-corrected (LS mean difference) (plasma ≥2000 ng/mL): 0.2
- LVEDD change from baseline, placebo-corrected (LS mean difference) (plasma ≥2000 ng/mL): −0.3 mm
- LVEDV change from baseline, placebo-corrected (LS mean difference) (plasma ≥2000 ng/mL): -1.9 mL
- LVEF change from baseline, placebo-corrected (LS mean difference) (plasma ≥2000 ng/mL): 4.4%
- LVESD change from baseline, placebo-corrected (LS mean difference) (plasma ≥2000 ng/mL): −1.8 mm
- LVESV change from baseline, placebo-corrected (LS mean difference) (plasma ≥2000 ng/mL): -3.5 mL
- LVFS change from baseline, placebo-corrected (LS mean difference) (plasma ≥2000 ng/mL): 2.8%
- LVGLS change from baseline, placebo-corrected (LS mean difference) (plasma ≥2000 ng/mL): −2.1%
- LVSV change from baseline, placebo-corrected (LS mean difference) (plasma ≥2000 ng/mL): 9.0 mL
- SET change from baseline, placebo-corrected (LS mean difference) (plasma ≥2000 ng/mL): 36 ms
- e′ lateral change from baseline, placebo-corrected (LS mean difference) (plasma ≥2000 ng/mL): -1 cm/s
